Test results taken from ChEMBL document CHEMBL1155346, “Synthesis, photochemical E (trans)-->Z (cis) isomerization and antimicrobial activity of 2-chloro-5-methylpyridine-3-olefin derivatives” (2009).
Values after ≈ are worked out from the molar mass of the structure shown.

Assays:
Format in all cases: functional
Rhizopus arrhizus [1] = test: Antifungal activity against Rhizopus oryzae at 100 ug; details: read-out: DIZ
Staphylococcus aureus = test: Antibacterial activity against Staphylococcus aureus MTCC 11 by broth dilution method
Aspergillus niger [2] = test: Antifungal activity against Aspergillus niger at 150 ug; details: read-out: DIZ
Bacillus subtilis = test: Antibacterial activity against Bacillus subtilis MTCC 441 by broth dilution method
Candida albicans [3] = test: Antifungal activity against Candida albicans at 150 ug; details: read-out: DIZ
Candida albicans [4] = test: Antifungal activity against Candida albicans at 100 ug; details: read-out: DIZ
Rhizopus arrhizus [5] = test: Antifungal activity against Rhizopus oryzae at 150 ug; details: read-out: DIZ
Escherichia coli = test: Antibacterial activity against Escherichia coli by broth dilution method
Aspergillus niger [6] = test: Antifungal activity against Aspergillus niger at 100 ug; details: read-out: DIZ
Pseudomonas aeruginosa = test: Antibacterial activity against Pseudomonas aeruginosa MTCC 741 by broth dilution method
Saccharomyces cerevisiae [7] = test: Antifungal activity against Saccharomyces cerevisiae at 100 ug; details: read-out: DIZ
Saccharomyces cerevisiae [8] = test: Antifungal activity against Saccharomyces cerevisiae at 150 ug; details: read-out: DIZ

MIC (Staphylococcus aureus) [µg/mL] | MIC (Bacillus subtilis) [µg/mL] | MIC (Escherichia coli) [µg/mL] | MIC (Pseudomonas aeruginosa) [µg/mL] | Compound | zone of inhibition at 100 µg/disc (Rhizopus arrhizus [1]) [mm] | zone of inhibition at 150 µg/disc (Aspergillus niger [2]) [mm] | zone of inhibition at 150 µg/disc (Candida albicans [3]) [mm] | zone of inhibition at 100 µg/disc (Candida albicans [4]) [mm] | zone of inhibition at 150 µg/disc (Rhizopus arrhizus [5]) [mm] | zone of inhibition at 100 µg/disc (Aspergillus niger [6]) [mm] | zone of inhibition at 100 µg/disc (Saccharomyces cerevisiae [7]) [mm] | zone of inhibition at 150 µg/disc (Saccharomyces cerevisiae [8]) [mm]
75 (≈ 408 µM) | 37.5 (≈ 204 µM) | 37.5 (≈ 204 µM) | 37.5 (≈ 204 µM) | Cc1cnc(Cl)c(/C=C/CO)c1 | 16 | 17 | 15 | 13 | 18 | 14 | 12 | 14
37.5 (≈ 204 µM) | 37.5 (≈ 204 µM) | 75 (≈ 408 µM) | 75 (≈ 408 µM) | Cc1cnc(Cl)c(/C=C\CO)c1 | 14 | 16 | 14 | 11 | 17 | 12 | 11 | 13
37.5 (≈ 192 µM) | 37.5 (≈ 192 µM) | 75 (≈ 383 µM) | 75 (≈ 383 µM) | CC(=O)/C=C/c1cc(C)cnc1Cl | 12 | 14 | 17 | 13 | 13 | 13 | – | –
8.12 (≈ 38.4 µM) | 37.5 (≈ 177 µM) | 37.5 (≈ 177 µM) | 37.5 (≈ 177 µM) | COC(=O)/C=C\c1cc(C)cnc1Cl | 10 | 17 | 13 | 11 | 11 | 14 | – | –
75 (≈ 383 µM) | 37.5 (≈ 192 µM) | 37.5 (≈ 192 µM) | 37.5 (≈ 192 µM) | CC(=O)/C=C\c1cc(C)cnc1Cl | 11 | 16 | 11 | 9 | 13 | 14 | – | –

Further lines, the compound ahead of its results:

Compound | MIC (Staphylococcus aureus) [µg/mL] | MIC (Bacillus subtilis) [µg/mL] | MIC (Escherichia coli) [µg/mL] | MIC (Pseudomonas aeruginosa) [µg/mL] | zone of inhibition at 100 µg/disc (Rhizopus arrhizus [1]) [mm] | zone of inhibition at 150 µg/disc (Aspergillus niger [2]) [mm] | zone of inhibition at 150 µg/disc (Candida albicans [3]) [mm] | zone of inhibition at 100 µg/disc (Candida albicans [4]) [mm] | zone of inhibition at 150 µg/disc (Rhizopus arrhizus [5]) [mm] | zone of inhibition at 100 µg/disc (Aspergillus niger [6]) [mm] | zone of inhibition at 100 µg/disc (Saccharomyces cerevisiae [7]) [mm] | zone of inhibition at 150 µg/disc (Saccharomyces cerevisiae [8]) [mm]
COC(=O)/C=C/c1cc(C)cnc1Cl | 75 (≈ 354 µM) | 37.5 (≈ 177 µM) | 37.5 (≈ 177 µM) | 75 (≈ 354 µM) | 10 | 17 | 11 | 8 | 11 | 16 | – | –
Cc1cnc(Cl)c(/C=C\C#N)c1 | 75 (≈ 420 µM) | 37.5 (≈ 210 µM) | 37.5 (≈ 210 µM) | 75 (≈ 420 µM) | 9 | 12 | 10 | – | 10 | 9 | – | –
Cc1cnc(Cl)c(/C=C/C#N)c1 | 75 (≈ 420 µM) | 75 (≈ 420 µM) | 75 (≈ 420 µM) | 75 (≈ 420 µM) | 10 | 15 | 12 | 10 | 12 | 13 | – | –
C[C@@H]1[C@H](O)[C@@H](C)/C=C/C=C/C=C/C=C/C=C/C=C/C=C/[C@H](O[C@@H]2O[C@H](C)[C@@H](O)[C@H](N)[C@@H]2O)C[C@@H]2O[C@](O)(C[C@@H](O)C[C@@H](O)[C@H](O)CC[C@@H](O)C[C@@H](O)CC(=O)O[C@H]1C)C[C@H](O)[C@H]2C(=O)O [AMPHOTERICIN B] | – | – | – | – | 23 | – | – | 23.5 | – | 26 | 22 | –
CC1(C)S[C@@H]2[C@H](NC(=O)Cc3ccccc3)C(=O)N2[C@H]1C(=O)O [PENICILLIN G] | 1.56 (≈ 4.67 µM) | 1.56 (≈ 4.67 µM) | 12.5 (≈ 37.4 µM) | 12.5 (≈ 37.4 µM) | – | – | – | – | – | – | – | –
CN[C@@H]1[C@H](O[C@H]2[C@H](O[C@H]3[C@H](O)[C@@H](O)[C@H](N=C(N)N)[C@@H](O)[C@@H]3N=C(N)N)O[C@@H](C)[C@]2(O)C=O)O[C@@H](CO)[C@H](O)[C@H]1O [STREPTOMYCIN] | 6.25 (≈ 10.7 µM) | 6.25 (≈ 10.7 µM) | 1.56 (≈ 2.69 µM) | 3.12 (≈ 5.37 µM) | – | – | – | – | – | – | – | –
